Source: US20240368109A1, “ALLOSTERIC MODULATORS OF NICOTINIC ACETYLCHOLINE RECEPTORS” (MERCK SHARP & DOHME LLC, priority 2021, published 2024)

Target: human α7 nAChR (Homo sapiens (Human), UniProt P36544)
Experiment: Automated patch-clamp electrophysiology functional assay (Assay A)
Type: cell-based
Settings: IonFlux HT whole-cell population patch, HEK cells expressing human α7/RIC-3, 40 μM acetylcholine
Experimental: The α7 nAChR positive allosteric modulator (PAM) activity of the present compounds may be tested using assays known in the art. The α7 nAChR PAMs described herein have activities in an automated patch-clamp electrophysiology functional assay as described in the examples. The assay was performed using the IonFlux HT in a whole-cell, population patch configuration. See Golden et al. Assay Drug Dev. Technol. (2011) 9:608-619. The compounds were assessed for their ability to modulate the function of the human α7 nAChR stably expressed in a HEK cell line both in the presence, and in the absence of the natural α7 agonist acetylcholine. By performing a series of such measurements at different concentrations, the effective concentration of the α7 nAChR PAMs (EC50) was determined. See Spencer et al. Assay Drug Dev. Technol. (2012) 10:313-324.
Direct activation of α7 (agonism), and potentiation of acetylcholine-evoked α7 currents was determined as follows:
Automated Patch-Clamp Electrophysiology Functional Assay (Assay A)
Automated patch-clamp electrophysiology was performed using the IonFluxHT (Fluxion Biosciences Inc., San Francisco, CA) in the whole-cell, population patch configuration. Test compounds were assessed for their ability to modulate the function of the α7 nicotinic acetylcholine receptor both in the presence, and in the absence of the natural α7 agonist acetylcholine. A HEK cell line stably expressing both human RIC-3 and human α7 (PrecisION hnAChR α7/RIC-3, Eurofins Pharma, St. Charles, MO) was cultured in 175 cm^2 triple-layer tissue culture flasks to no more than 90% confluency in DMEM/F-12 growth media supplemented with 10% heat-inactivated fetal bovine serum, 1% non-essential amino acids, 0.625 μg/mL Puromycin, and 400 μg/mL Geneticin. Immediately prior to assay, cells were detached by first aspirating growth media, rinsing with Dulbecco's phosphate buffered saline, and then adding 10 mL of Accutase (Innovative Cell Technologies, San Diego, CA) to the flask and then incubating at 37° C. for 5 minutes. Detached cells were then recovered by the addition of 40 mL of CHO-serum-free media supplemented with 25 mM HEPES, and rocked gently in a 50 mL conical tube for 20 minutes prior to patch-clamp assay. After recovery, cells were pelleted by centrifugation at 1,000 RPM for 1 minute in a compact bench top centrifuge; recovery media was aspirated and cells were resuspended in external recording solution (150 mM NaCl, 5 mM KCl, 2 mM CaCl2), 1 mM MgCl2, 10 mM HEPES, 12 mM dextrose) to a density of 5.0×10^6 cells/mL. The cell suspension was added to the cell inlet wells on an IonFlux HT population patch plate which had previously been rinsed and primed with deionized H2O. Test compounds were serially diluted in DMSO and then resuspended to the final test concentration in external recording solution, with, or without 40 μM acetylcholine added to the external recording solution; test compounds were then transferred to the IonFlux HT population patch plate. Internal recording solution (110 mM TrisPO4, 28 mM TrisBase, 0.1 mM CaCl2), 2 mM MgCl2, 11 mM EGTA, 4 mM MgATP) was added to the internal recording solution inlet wells on the IonFlux HT patch plate previously loaded with cells and test compounds, and the plate loaded into the IonFlux HT instrument. A protocol was executed on the IonFlux HT to trap the cells, break into the cells, and establish the whole-cell recording configuration; cells were voltage-clamped at a holding potential of −60 mV for the duration of the experiment, all experiments were conducted at room temperature, and the IonFlux HT injection pressure was 8 psi for solution applications. Upon establishing the whole-cell configuration, external recording solution was perfused into the recording chambers for 120 seconds and then 40 μM acetylcholine was applied for 1 second and immediately washed off with external recording solution for 60 seconds. […]

human α7 nAChR, sequence (P36544 23-502): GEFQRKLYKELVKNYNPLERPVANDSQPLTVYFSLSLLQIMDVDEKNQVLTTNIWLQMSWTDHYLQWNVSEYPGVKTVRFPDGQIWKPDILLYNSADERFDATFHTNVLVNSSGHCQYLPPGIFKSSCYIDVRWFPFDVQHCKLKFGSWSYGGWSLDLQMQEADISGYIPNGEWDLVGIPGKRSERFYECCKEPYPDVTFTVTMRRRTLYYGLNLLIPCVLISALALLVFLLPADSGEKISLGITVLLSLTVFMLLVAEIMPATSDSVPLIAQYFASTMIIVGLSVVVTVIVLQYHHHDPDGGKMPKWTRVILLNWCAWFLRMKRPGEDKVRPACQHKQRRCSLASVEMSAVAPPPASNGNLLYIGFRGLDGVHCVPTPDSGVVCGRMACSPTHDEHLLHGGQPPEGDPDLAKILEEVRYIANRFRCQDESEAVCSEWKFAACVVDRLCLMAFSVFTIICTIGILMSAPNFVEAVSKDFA

EC50 (electrophysiology EC50 values)	EC50 (potency class)	Structure (SMILES)
2300 nM	500 to 5000 nM	CC(NC(=O)C1C2Oc3ccc(F)cc3C21)c1cc2ccccc2o1 (stereo not drawn) [Example C20, exo-N-[1-(1-benzofuran-2-yl)ethyl]-5-fluoro-1a,6b-dihydro-1H-cyclopropa[b][1]benzofuran-1-carboxamide]
1000 nM	500 to 5000 nM	O=C(NC1(c2ccccc2)CCC1)C1C2COc3ccc(F)cc3C21 (stereo not drawn) [Example A8, exo-6-fluoro-N-(1-phenylcyclobutyl)-1,1a,2,7b-tetrahydrocyclopropa[c][1]benzopyran-1-carboxamide]
	500 to 5000 nM	CCOc1ccc([C@H](COC)NC(=O)C2C3Oc4ccc(C#N)cc4C32)cc1 (stereo partly drawn) [Example B14, exo-5-cyano-N-[(1R)-1-(4-ethoxyphenyl)-2-methoxyethyl]-1a,6b-dihydro-1H-cyclopropa[b][1]benzofuran-1-carboxamide]
4100 nM		CCOc1ccc([C@H](COC)NC(=O)C2C3Oc4ccc(C#N)cc4C32)cc1 (stereo partly drawn) [Example B16, exo-5-cyano-N-[(1R)-1-(4-ethoxyphenyl)-2-methoxyethyl]-1a,6b-dihydro-1H-cyclopropa[b][1]benzofuran-1-carboxamide]
1000 nM	500 to 5000 nM	COc1ccc(-c2noc(CNC(=O)C3C4Oc5ccc(F)cc5C43)n2)cn1 (stereo not drawn) [Example C51, exo-5-fluoro-N-{[3-(6-methoxypyridin-3-yl)-1,2,4-oxadiazol-5-yl]methyl}-1a,6b-dihydro-1H-cyclopropa[b][1]benzofuran-1-carboxamide]
810 nM	500 to 5000 nM	COc1ccc2c(c1)OCC2NC(=O)C1C2Oc3ccc(F)cc3C21 (stereo not drawn) [Example C8, exo-5-fluoro-N-(6-methoxy-2,3-dihydro-1-benzofuran-3-yl)-1a,6b-dihydro-1H-cyclopropa[b][1]benzofuran-1-carboxamide]
72 nM	≤ 100 nM	CCOc1ccc([C@H](COC)NC(=O)C2C3Oc4cccc(Br)c4C32)cc1 (stereo partly drawn) [Example B19, exo-6-bromo-N-[(1R)-1-(4-ethoxyphenyl)-2-methoxyethyl]-1a,6b-dihydro-1H-cyclopropa[b][1]benzofuran-1-carboxamide]
1100 nM	500 to 5000 nM	CCOc1ccc([C@@H](NC(=O)C2C3COc4ccc(F)cc4C32)C(F)F)cn1 (stereo partly drawn) [Example A14, exo-N-[(1R)-1-(6-ethoxypyridin-3-yl)-2,2-difluoroethyl]-6-fluoro-1,1a,2,7b-tetrahydrocyclopropa[c][1]benzopyran-1-carboxamide]
1500 nM	500 to 5000 nM	COc1cc(C2(NC(=O)C3C4COc5ccccc5C43)CCC2)ccn1 (stereo not drawn) [Example A12, exo-N-[1-(2-methoxypyridin-4-yl)cyclobutyl]-1,1a,2,7b-tetrahydrocyclopropa[c][1]benzopyran-1-carboxamide]
950 nM	500 to 5000 nM	Cc1cc(F)cc(CNC(=O)C2C3Oc4ccc(F)cc4C32)c1 (stereo not drawn) [Example C24, exo-5-fluoro-N-[(3-fluoro-5-methylphenyl)methyl]-1a,6b-dihydro-1H-cyclopropa[b][1]benzofuran-1-carboxamide]
1500 nM	500 to 5000 nM	CCOc1ccc([C@H](COC)NC(=O)C2C3Oc4ccc(-c5nn[nH]n5)cc4C32)cc1 (stereo partly drawn) [Example 5, exo-N-[(1R)-1-(4-Ethoxyphenyl)-2-methoxyethyl]-5-(2H-tetrazol-5-yl)-1a,6b-dihydro-1H-cyclopropa[b][1]benzofuran-1-carboxamide]
	5000 to 50000 nM	CCOc1ccc([C@H](COC)NC(=O)C2C3Oc4ccc(-c5cncnc5)cc4C32)cc1 (stereo partly drawn) [Example B11, exo-N-[(1R)-1-(4-ethoxyphenyl)-2-methoxyethyl]-5-(pyrimidin-5-yl)-1a,6b-dihydro-1H-cyclopropa[b][1]benzofuran-1-carboxamide]
2800 nM	500 to 5000 nM	CCOc1ccc([C@H](COC)NC(=O)C2C3Oc4ccc(-c5c(C)noc5C)cc4C32)cc1 (stereo partly drawn) [Example B10, exo-5-(3,5-dimethyl-1,2-oxazol-4-yl)-N-[(1R)-1-(4-ethoxyphenyl)-2-methoxyethyl]-1a,6b-dihydro-1H-cyclopropa[b][1]benzofuran-1-carboxamide]
280 nM	100 to 500 nM	CCOc1ccc([C@H](COC)NC(=O)C2C3Oc4c(Br)cccc4C32)cc1 (stereo partly drawn) [Example B8, exo-3-bromo-N-[(1R)-1-(4-ethoxyphenyl)-2-methoxyethyl]-1a,6b-dihydro-1H-cyclopropa[b][1]benzofuran-1-carboxamide]
50 nM	≤ 100 nM	O=C(NCc1nc(-c2ccccc2)no1)C1C2Oc3ccc(F)cc3C21 (stereo not drawn) [Example 7, exo-5-Fluoro-N-[(3-phenyl-1,2,4-oxadiazol-5-yl)methyl]-1a,6b-dihydro-1H-cyclopropa[b][1]benzofuran-1-carboxamide]
1700 nM	500 to 5000 nM	O=C(N[C@@H](CO)C1CCCCC1)C1C2COc3ccc(F)cc3C21 (stereo partly drawn) [Example 3, exo-N-[(1R)-1-Cyclohexyl-2-hydroxyethyl]-6-fluoro-1,1a,2,7b-tetrahydrocyclopropa[c][1]benzopyran-1-carboxamide]
470 nM	100 to 500 nM	CCOc1ccc([C@H](COC)NC(=O)C2C3Oc4ccccc4C32)cc1 (stereo partly drawn) [Example B3, exo-N-[(1R)-1-(4-ethoxyphenyl)-2-methoxyethyl]-1a,6b-dihydro-1H-cyclopropa[b][1]benzofuran-1-carboxamide]
190 nM	100 to 500 nM	O=C(NCc1cc(-c2ccccc2)no1)C1C2Oc3ccc(F)cc3C21 (stereo not drawn) [Example C32, exo-5-fluoro-N-[(3-phenyl-1,2-oxazol-5-yl)methyl]-1a,6b-dihydro-1H-cyclopropa[b][1]benzofuran-1-carboxamide]
72 nM	≤ 100 nM	CCOc1ccc([C@H](COC)NC(=O)C2C3Cc4ccccc4C32)cc1 (single isomer, unassigned) [Example 2]
	500 to 5000 nM	O=C(NCc1cc(-c2ccc(Cl)cc2)no1)C1C2Oc3ccc(F)cc3C21 (stereo not drawn) [Example C52, exo-N-{[3-(4-chlorophenyl)-1,2-oxazol-5-yl]methyl}-5-fluoro-1a,6b-dihydro-1H-cyclopropa[b][1]benzofuran-1-carboxamide]
1500 nM	500 to 5000 nM	CCOc1ccc([C@H](CF)NC(=O)C2C3COc4ccc(F)cc4C32)cn1 (stereo partly drawn) [Example A15, exo-N-[(1R)-1-(6-ethoxypyridin-3-yl)-2-fluoroethyl]-6-fluoro-1,1a,2,7b-tetrahydrocyclopropa[c][1]benzopyran-1-carboxamide]

Structure (SMILES)	EC50 (electrophysiology EC50 values)	EC50 (potency class)
O=C(NCc1cccc(N2CCCC2)n1)C1C2Oc3ccc(F)cc3C21 (stereo not drawn) [Example C18, 2-{[(exo-5-fluoro-1a,6b-dihydro-1H-cyclopropa[b][1]benzofuran-1-carbonyl)amino]methyl}-6-(pyrrolidin-1-yl)pyridine]	1400 nM	500 to 5000 nM
CCOc1ccc([C@H](COC)NC(=O)[C@@H]2[C@H]3Oc4ccnc(OC)c4[C@H]32)cc1 [Example B13, exo-N-[(1R)-1-(4-ethoxyphenyl)-2-methoxyethyl]-6-methoxy-1a,6b-dihydro-1H-cyclopropa[4,5]furo[3,2-c]pyridine-1-carboxamide]	1100 nM	500 to 5000 nM
C[C@H](NC(=O)C1C2Oc3ccc(F)cc3C21)c1cccc2ncccc12 (stereo partly drawn) [Example C36, 5-{(1S)-1-[(exo-5-fluoro-1a,6b-dihydro-1H-cyclopropa[b][1]benzofuran-1-carbonyl)amino]ethyl}quinoline]	1300 nM	500 to 5000 nM
